Patent US11530229B2, “Cyano cyclobutyl compounds for CBL-B inhibition and uses thereof” (Nurix Therapeutics, Inc., priority 2019, dated 2022)
Where two headings read alike, the source gives them in different places.

Columns and labels:
[1] = system: primary human total T-cells; assay: T-cell activation, CD25 surface staining, Biological Example 2; assay type: cell-based; conditions: 48 hours, fold change over baseline; for fold induction at 0.3 µM: 0.3 μM inhibitor; for fold induction at 1 µM: 1 μM inhibitor; for fold induction at 3 µM: 3 μM inhibitor
Cbl-b = Cbl-b (Homo sapiens (Human), UniProt Q13191); assay: Cbl-b displacement assay (Cbl-b inhibition assay), Biological Example 1; assay type: binding
Method: Candidate compounds were evaluated for their ability to bind and inhibit Cbl-b, an E3 ubiquitin-protein ligase, as evidenced by their ability to displace a fluorophore-labeled probe (Example 59) bound to Cbl-b.
The ability of candidate compounds to displace a known inhibitor and thereby inhibit Cbl-b activity was measured by monitoring the interaction of Cbl-b with a fluorophore-labeled probe in the presence of the candidate compound. A truncated variant of Cbl-b (UniProt number Q13191; SEQ ID NO:1) containing an Avitag at its N-terminus was co-expressed with BirA biotin ligase and purified using a standard protocol (see Dou et al., Nature Structural and Molecular Biology, 8: 982-987, 2013; Avidity LLC).
Cbl-b Amino Acid Residues 36-427:
Fluorescently-labeled inhibitor probe was synthesized and tagged with BODIPY FL (Example 59). Cbl-b displacement assays were performed in a 384-well plate at room temperature in a 10 μL reaction volume by pre-incubating 0.5 nM Cbl-b or 0.125 nM Cbl-b (final concentration, indicated as “High” and “Low”, respectively) in an assay buffer containing 20 mM HEPES pH 7.5, 150 mM NaCl, 0.01% Triton X-100, 0.01% BSA and 0.5 mM TCEP in the presence of a candidate compound in 1% DMSO (final concentration) for 1 hour. After incubation in the presence of the candidate compound, the plate was incubated for an additional 1 hour in the presence of an approximate EC40 binding saturation consisting of 150 nM fluorescently-labeled inhibitor probe and 2 nM Streptavidin-Terbium (Cisbio) (final concentrations). Following the 1 hour incubation, the plates were read for TR-FRET signal at […] using an Envision plate reader (Perkin Elmer).

[2] = system: primary human total T-cells; assay: T-cell activation, IL-2 secretion, Biological Example 2; assay type: cell-based; conditions: 48 hours, fold change over baseline; for fold induction at 0.3 µM: 0.3 μM inhibitor; for fold induction at 1 µM: 1 μM inhibitor; for fold induction at 3 µM: 3 μM inhibitor
[3] = anti-CD3 and anti-CD28 co-stimulation
[4] = anti-CD3 and anti-CD28 co-stimulation, read-out: CD25 staining CD3/CD28 1 μM
[5] = anti-CD3 stimulation alone, read-out: CD25 staining CD3 1 μM
[6] = read-out: IC50 values in the Cbl-b inhibition assay of Biological Example 1
[7] = anti-CD3 and anti-CD28 co-stimulation, read-out: IL-2 secretion CD3/CD28 1 μM
[8] = anti-CD3 stimulation alone, read-out: IL-2 secretion CD3 1 μM
[9] = 0.125 nM Cbl-b final concentration (Low), read-out: Cbl-b activity IC50 (Low)

Cbl-b, sequence (Q13191 36-427): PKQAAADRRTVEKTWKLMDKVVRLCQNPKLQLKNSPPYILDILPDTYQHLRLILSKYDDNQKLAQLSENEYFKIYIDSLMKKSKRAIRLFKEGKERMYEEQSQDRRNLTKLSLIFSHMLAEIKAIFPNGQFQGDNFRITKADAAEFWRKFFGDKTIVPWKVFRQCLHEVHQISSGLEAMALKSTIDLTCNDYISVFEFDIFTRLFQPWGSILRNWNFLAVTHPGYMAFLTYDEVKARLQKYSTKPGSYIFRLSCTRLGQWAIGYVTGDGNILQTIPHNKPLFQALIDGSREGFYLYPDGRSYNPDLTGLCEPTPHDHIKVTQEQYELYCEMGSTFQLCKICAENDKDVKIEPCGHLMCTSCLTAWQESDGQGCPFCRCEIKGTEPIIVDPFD

| Compound | fold induction at 0.3 µM [1, 3] | fold induction at 1 µM [1, 4] | fold induction at 1 µM [1, 5] | fold induction at 3 µM ([1]; anti-CD3 stimulation alone) | IC50 (Cbl-b; 0.5 nM Cbl-b final concentration (High), read-out: Cbl-b activity IC50 (High)) [nM] | IC50 (Cbl-b; [6]) [nM] | fold induction at 0.3 µM [2, 3] | fold induction at 1 µM [2, 7] | fold induction at 1 µM [2, 8] | fold induction at 3 µM ([2]; anti-CD3 stimulation alone) | IC50 (Cbl-b; [9]) [nM] |
| --- | --- | --- | --- | --- | --- | --- | --- | --- | --- | --- | --- |
| Cc1cc(C(=O)Nc2cccc([C@]3(Cc4nncn4C)C[C@H](C#N)C3)c2)nc(C2CC2)n1 [Compound 2, N-(3-((1s,3s)-3-cyano-1-((4-methyl-4H-1,2,4-triazol-3-yl)methyl)cyclobutyl)phenyl)-2-cyclopropyl-6-methylpyrimidine-4-carboxamide] | ≤ 1.24 | ≤ 1.24 | 1 to 1.15 | 1 to 1.15 | 2 to 5 | 2 to 5 | ≤ 15 | ≤ 15 | < 0.4 | < 0.4 |  |
| Cn1cnnc1C[C@]1(c2cccc(N3Cc4c(cccc4C(F)(F)F)C3=O)c2)C[C@H](C#N)C1 [Compound 3, (1r,3r)-3-((4-methyl-4H-1,2,4-triazol-3-yl)methyl)-3-(3-(1-oxo-4-(trifluoromethyl)isoindolin-2-yl)phenyl)cyclobutane-1-carbonitrile] | ≤ 1.24 | ≤ 1.24 | ≤ 1 | 1 to 1.15 |  | ≥ 20 | ≤ 15 | ≤ 15 | < 0.4 | < 0.4 | ≥ 20 |
| CCC1CN(Cc2cc3c(c(C(F)(F)F)c2)CN(c2cccc([C@]4(Cc5nncn5C)C[C@@H](C#N)C4)c2)C3=O)CCCO1 (stereo partly shown) [Compound 5, (1r,3r)-3-(3-(6-((2-ethyl-1,4-oxazepan-4-yl)methyl)-1-oxo-4-(trifluoromethyl)isoindolin-2-yl)phenyl)-3-((4-methyl-4H-1,2,4-triazol-3-yl)methyl)cyclobutane-1-carbonitrile] | > 1.39 | > 1.39 | > 1.15 | > 1.15 |  | 2 to 5 | > 20 | > 20 | > 0.85 | > 0.85 | 2 to 5 |
| C[C@@H]1CN(Cc2cc3c(c(C(F)(F)F)c2)CN(c2cccc([C@]4(Cc5nncn5C)C[C@@H](C#N)C4)c2)C3=O)CCO1 [Compound 6, (1r,3r)-3-((4-methyl-4H-1,2,4-triazol-3-yl)methyl)-3-(3-(6-(((R)-2-methylmorpholino)methyl)-1-oxo-4-(trifluoromethyl)isoindolin-2-yl)phenyl)cyclobutane-1-carbonitrile] | ≤ 1.24 | ≤ 1.24 | 1 to 1.15 | ≤ 1 |  | 2 to 5 | ≤ 15 | ≤ 15 | 0.4 to 0.85 | 0.4 to 0.85 | 2 to 5 |
| C[C@@H]1CN(Cc2cc3c(c(C(F)(F)F)c2)CN(c2cccc([C@]4(Cc5nncn5C)C[C@@](C)(C#N)C4)c2)C3=O)CCO1 [Compound 7, (1r,3r)-1-methyl-3-((4-methyl-4H-1,2,4-triazol-3-yl)methyl)-3-(3-(6-(((R)-2-methylmorpholino)methyl)-1-oxo-4-(trifluoromethyl)isoindolin-2-yl)phenyl)cyclobutane-1-carbonitrile] | ≤ 1.24 | 1.24 to 1.39 | ≤ 1 | ≤ 1 |  | 5 to 20 | ≤ 15 | ≤ 15 | < 0.4 | < 0.4 | 5 to 20 |
| Cc1cc(C(=O)Nc2cccc([C@]3(Cc4nncn4C)C[C@@](C)(C#N)C3)c2)nc(C2CC2)n1 [Compound 8, N-(3-((1r,3r)-3-cyano-3-methyl-1-((4-methyl-4H-1,2,4-triazol-3-yl)methyl)cyclobutyl)phenyl)-2-cyclopropyl-6-methylpyrimidine-4-carboxamide] |  |  |  |  |  | ≥ 20 |  |  |  |  | ≥ 20 |
| Cc1cc(C(=O)Nc2cccc([C@]3(Cc4nncn4C)C[C@](C)(C#N)C3)c2)nc(C2CC2)n1 [Compound 9] | ≤ 1.24 | 1.24 to 1.39 | ≤ 1 | 1 to 1.15 |  | 5 to 20 | ≤ 15 | ≤ 15 | < 0.4 | < 0.4 | 5 to 20 |
| C[C@@H]1CN(Cc2cc3c(c(C(F)(F)F)c2)CN(c2cccc([C@]4(Cc5nncn5C)C[C@](C)(C#N)C4)c2)C3=O)CCO1 [Compound 10, (1S,3s)-1-methyl-3-((4-methyl-4H-1,2,4-triazol-3-yl)methyl)-3-(3-(6-(((R)-2-methylmorpholino)methyl)-1-oxo-4-(trifluoromethyl)isoindolin-2-yl)phenyl)cyclobutane-1-carbonitrile] | ≤ 1.24 | ≤ 1.24 | ≤ 1 | ≤ 1 |  | ≥ 20 | ≤ 15 | ≤ 15 | < 0.4 | < 0.4 | ≥ 20 |
| Cn1cnnc1C[C@]1(c2cccc(N3Cc4c(cc(CNC5CC6C(C5)C6(F)F)cc4C(F)(F)F)C3=O)c2)C[C@H](C#N)C1 (stereo partly shown) [Compound 12, (1r,3r)-3-(3-(6-(((6,6-difluorobicyclo[3.1.0]hexan-3-yl)amino)methyl)-1-oxo-4-(trifluoromethyl)isoindolin-2-yl)phenyl)-3-((4-methyl-4H-1,2,4-triazol-3-yl)methyl)cyclobutane-1-carbonitrile] | 1.24 to 1.39 | 1.24 to 1.39 | 1 to 1.15 | 1 to 1.15 |  | < 1 | 15 to 20 | 15 to 20 | > 0.85 | 0.4 to 0.85 | < 1 |
| CC1CCCN(Cc2cc3c(c(C(F)(F)F)c2)CN(c2cccc([C@]4(Cc5nncn5C)C[C@@H](C#N)C4)c2)C3=O)CC1 (stereo partly shown) [Compound 13, (1r,3r)-3-((4-methyl-4H-1,2,4-triazol-3-yl)methyl)-3-(3-(6-((4-methylazepan-1-yl)methyl)-1-oxo-4-(trifluoromethyl)isoindolin-2-yl)phenyl)cyclobutane-1-carbonitrile] | 1.24 to 1.39 | 1.24 to 1.39 | > 1.15 | 1 to 1.15 |  |  | 15 to 20 | 15 to 20 | 0.4 to 0.85 | 0.4 to 0.85 | 2 to 5 |
| C[C@@H]1CN(Cc2cc3c(c(C(F)(F)F)c2)CN(c2cccc([C@]4(Cc5nncn5C)C[C@@H](CC#N)C4)c2)C3=O)CCC1(F)F [Compound 51, [(1r,3r)-3-[3-(6-{[(3R)-4,4-difluoro-3-methylpiperidin-1-yl]methyl}-1-oxo-4-(trifluoromethyl)-3H-isoindol-2-yl)phenyl]-3-[(4-methyl-1,2,4-triazol-3-yl)methyl]cyclobutyl]acetonitrile] |  |  |  |  |  | ≥ 20 |  |  |  |  | ≥ 20 |
| C[C@@H]1CN(Cc2cc3c(c(C(F)(F)F)c2)CN(c2cccc([C@]4(Cc5nncn5C)C[C@H](CC#N)C4)c2)C3=O)CCC1(F)F [Compound 52, ((1S,3s)-3-(3-(6-(((R)-4,4-difluoro-3-methylpiperidin-1-yl)methyl)-1-oxo-4-(trifluoromethyl)isoindolin-2-yl)phenyl)-3-((4-methyl-4H-1,2,4-triazol-3-yl)methyl)cyclobutyl)acetonitrile] |  |  |  |  |  | 5 to 20 |  |  |  |  | 5 to 20 |
| C[C@@H]1CN(C(C)(C)c2cc3c(c(C(F)(F)F)c2)CN(c2cccc([C@]4(Cc5nncn5C)C[C@@H](C#N)C4)c2)C3=O)CCO1 [Compound 58, (1R,3r)-3-((4-methyl-4H-1,2,4-triazol-3-yl)methyl)-3-(3-(6-(2-((R)-2-methylmorpholino)propan-2-yl)-1-oxo-4-(trifluoromethyl)isoindolin-2-yl)phenyl)cyclobutane-1-carbonitrile] |  |  |  |  |  | 2 to 5 |  |  |  |  | 2 to 5 |
